The values below come from the OligoGym collection.

The target in one data set is ANGPTL2. Particulars: ASO.
In the next data set the target is KRAS. To be noted: ASO, A431, 2 µM.

After the bases stand the sugars from the 5' end (letter, count) and the backbone: PS all phosphorothioate, else s phosphorothioate and o phosphodiester by linkage. Methylation of C is not given here. e = 2'-O-(2-methoxyethyl) (MOE); l = locked nucleic acid (LNA); k = constrained ethyl (cEt); d = 2'-deoxy (DNA)

Turning to “ATGGTGGTTATTCTTTGTGA (sugars l1 d17 l2, PS)”, the target mRNA inhibition in the data set with ANGPTL2 (5 µM) is 33%; with ANGPTL2 (25 µM), 35.7%.

“TTGATGATGCGGTTGTA (sugars l3 d12 l2, PS)”: the values for the target mRNA inhibition with ANGPTL2 (5 µM) and with ANGPTL2 (25 µM) were 76.5% and 83.1%, respectively.

Consider “GTTGATGATGCGGTTGTAG (sugars l1 d16 l2, PS)”, for which the target mRNA inhibition is 22.9% with ANGPTL2 (5 µM) and 34% in the data set with ANGPTL2 (25 µM).

On to “ACCCTCCATCCTTCACC (sugars l4 d11 l2, PS)”, for which the target mRNA inhibition was 36.5% in the data set with ANGPTL2 (5 µM) and 52.7% with ANGPTL2 (25 µM).

In the case of “TTATGCACTCGGTTCTCC (sugars l1 d15 l2, PS)”, the target mRNA inhibition is 30.6% in the data set with ANGPTL2 (5 µM) and 46.6% in the data set with ANGPTL2 (25 µM).

As to CCAACACTAACTCGGC (sugars l2 d12 l2, PS), the values for the target mRNA inhibition in the data set with ANGPTL2 (5 µM) and with ANGPTL2 (25 µM) were 36% and 54.3%, respectively.

For “ATTGTGGGTTGGAGGGC (sugars l1 d14 l2, PS)”, the values for the target mRNA inhibition with ANGPTL2 (5 µM) and in the data set with ANGPTL2 (25 µM) were 30.3% and 18.7%, respectively.

With “TAATTCACCGCCAAATTAC (sugars l3 d13 l3, PS)”, the target mRNA inhibition with ANGPTL2 (5 µM) was determined as 27.6%; with ANGPTL2 (25 µM), 36.8%.

Consider “TTGATGATGCGGTTGTAG (sugars l3 d13 l2, PS)”, for which the target mRNA inhibition in the data set with ANGPTL2 (5 µM) worked out at 70.7%; with ANGPTL2 (25 µM), 77.8%.

For the sequence GCTCCGGTAATGGCCC (sugars l1 d12 l3, PS), the target mRNA inhibition in the data set with ANGPTL2 (5 µM) worked out at 25.9%; in the data set with ANGPTL2 (25 µM), 29.2%.

In the case of “AAGTTGATAGTTTATCTC (sugars l4 d11 l3, PS)”, the target mRNA inhibition worked out at 91.6% in the data set with ANGPTL2 (5 µM) and 91.4% with ANGPTL2 (25 µM).

In the case of “ACCCTCCATCCTTCACC (sugars l2 d13 l2, PS)”, the figures for the target mRNA inhibition with ANGPTL2 (5 µM) and in the data set with ANGPTL2 (25 µM) were 34.7% and 54.5%, respectively.

For “ACCCTCCATCCTTCACC (sugars l3 d12 l2, PS)”, the target mRNA inhibition with ANGPTL2 (5 µM) was determined as 38.9%; in the data set with ANGPTL2 (25 µM), 44%.

For the sequence “TTTCTAAACTCTCACCCTG (sugars l1 d15 l3, PS)”, the target mRNA inhibition in the data set with ANGPTL2 (5 µM) came out at 26.4%; with ANGPTL2 (25 µM), 25.1%.

“CCAGAGCTAATCAGTGG (sugars l2 d13 l2, PS)”: the figures for the target mRNA inhibition with ANGPTL2 (5 µM) and with ANGPTL2 (25 µM) were 39.4% and 48.8%, respectively.

With “TGTTTGGAAATGTTATCT (sugars l3 d11 l4, PS)”, the values for the target mRNA inhibition in the data set with ANGPTL2 (5 µM) and with ANGPTL2 (25 µM) were 80.9% and 87.1%, respectively.

Regarding TCCGGTAATGGCCCC (sugars l1 d12 l2, PS), the target mRNA inhibition with ANGPTL2 (5 µM) is 34%; with ANGPTL2 (25 µM), 51.8%.

Regarding “TAATAGGCACACACCCAGAC (sugars l1 d17 l2, PS)”, the target mRNA inhibition with ANGPTL2 (5 µM) is 27.2%; with ANGPTL2 (25 µM), 43.3%.

In the case of “GTTATGCCCATTTCTAGG (sugars l1 d15 l2, PS)”, the target mRNA inhibition with ANGPTL2 (5 µM) is 47.7%; with ANGPTL2 (25 µM) it was 58.8%.

With GTTCGTCAGCCAGTAA (sugars l2 d11 l3, PS), the target mRNA inhibition is 46.5% with ANGPTL2 (5 µM) and 75.5% with ANGPTL2 (25 µM).

For the sequence GCTCTCATAATCCTAC (sugars l2 d11 l3, PS), the target mRNA inhibition with ANGPTL2 (5 µM) worked out at 59.2%; with ANGPTL2 (25 µM), 65.4%.

Consider “CTGGTTGATGATGCGGTT (sugars l1 d15 l2, PS)”, for which the target mRNA inhibition with ANGPTL2 (5 µM) turned out to be 56%; with ANGPTL2 (25 µM) it was 66%.

Regarding “ATAGTGGGCAGAGGGGG (sugars l1 d14 l2, PS)”, the target mRNA inhibition in the data set with ANGPTL2 (5 µM) amounted to 21.6%; with ANGPTL2 (25 µM), 13.4%.

With “CAGCCAGTAAATGTTCTCCA (sugars l1 d17 l2, PS)”, the target mRNA inhibition in the data set with ANGPTL2 (5 µM) was 42.8%; with ANGPTL2 (25 µM) it was 38%.

In the case of “AGTTGATAGTTTATCTCCT (sugars l2 d15 l2, PS)”, the results for the target mRNA inhibition with ANGPTL2 (5 µM) and in the data set with ANGPTL2 (25 µM) were 59.7% and 67.4%, respectively.

As to “CATTTTGAGATTCCCCCA (sugars l1 d15 l2, PS)”, the target mRNA inhibition is 22.1% with ANGPTL2 (5 µM) and 21.1% with ANGPTL2 (25 µM).

For the sequence “AAGAGAGAAGGCAGTGAGAG (sugars l2 d16 l2, PS)”, the target mRNA inhibition is 24.8% with ANGPTL2 (5 µM) and 10.9% in the data set with ANGPTL2 (25 µM).

For “GCCAACACTAACTCGGC (sugars l1 d14 l2, PS)”, the target mRNA inhibition with ANGPTL2 (5 µM) is 30.6%; in the data set with ANGPTL2 (25 µM) it was 31.4%.

On to “GTTGATAGTTTATCTCCT (sugars l1 d14 l3, PS)”, for which the results for the target mRNA inhibition with ANGPTL2 (5 µM) and in the data set with ANGPTL2 (25 µM) were 64.1% and 76.7%, respectively.

Turning to “GAAGAAAAGAGCACATGG (sugars l3 d11 l4, PS)”, the target mRNA inhibition with ANGPTL2 (5 µM) stood at 33.2%; in the data set with ANGPTL2 (25 µM) it was 9.98%.

In the case of “CTGGAAAGAAGGGGCTGTG (sugars l1 d16 l2, PS)”, the target mRNA inhibition with ANGPTL2 (5 µM) stood at 38.8%; in the data set with ANGPTL2 (25 µM), 30.4%.

As to CTCCAAATTAAATCCG (sugars l4 d9 l3, PS), the target mRNA inhibition in the data set with ANGPTL2 (5 µM) worked out at 22.4%; with ANGPTL2 (25 µM), 32.3%.

Take “GTCATAGAAACTACCCC (sugars l1 d13 l3, PS)”: the figures for the target mRNA inhibition with ANGPTL2 (5 µM) and in the data set with ANGPTL2 (25 µM) were 29.1% and 68.1%, respectively.

Take TTGGTTCGTCAGCCAG (sugars l1 d12 l3, PS): the target mRNA inhibition with ANGPTL2 (5 µM) came to 49.1%; with ANGPTL2 (25 µM) it was 65%.

Consider “CTAGTGTGCTCTGGAGC (sugars l1 d14 l2, PS)”, for which the target mRNA inhibition in the data set with ANGPTL2 (5 µM) came to 36.6%; in the data set with ANGPTL2 (25 µM) it was 65.7%.

In the case of “TAATGGCTGAGATGCAG (sugars l4 d11 l2, PS)”, the values for the target mRNA inhibition with ANGPTL2 (5 µM) and in the data set with ANGPTL2 (25 µM) were 36% and 52.6%, respectively.

Regarding “AAGAAGTTAACAGAGCCATC (sugars l1 d15 l4, PS)”, the target mRNA inhibition in the data set with ANGPTL2 (5 µM) was 42.1%; in the data set with ANGPTL2 (25 µM), 45.8%.

With “CAGGCCAACACTAACTC (sugars l1 d12 l4, PS)”, the results for the target mRNA inhibition with ANGPTL2 (5 µM) and with ANGPTL2 (25 µM) were 66.9% and 82.5%, respectively.

For “CTGGGTTATATTCTCTT (sugars l2 d12 l3, PS)”, the target mRNA inhibition with ANGPTL2 (5 µM) is 39.4%; with ANGPTL2 (25 µM) it was 43.5%.

Turning to “GTGGGCAAGAGGGATGC (sugars l1 d14 l2, PS)”, the target mRNA inhibition turned out to be 35% with ANGPTL2 (5 µM) and 32.2% with ANGPTL2 (25 µM).

As to “GTTGATAGTTTATCTCC (sugars l3 d12 l2, PS)”, the target mRNA inhibition stood at 87.4% in the data set with ANGPTL2 (5 µM) and 88.8% with ANGPTL2 (25 µM).

For “ATTTTGAGATTCCCCCAAA (sugars l1 d14 l4, PS)”, the target mRNA inhibition with ANGPTL2 (5 µM) is 7.37%; with ANGPTL2 (25 µM) it was -8.2%.

For the sequence “TTAGTGGAAGGTGTTGG (sugars l3 d12 l2, PS)”, the target mRNA inhibition amounted to 51.1% with ANGPTL2 (5 µM) and 62.8% with ANGPTL2 (25 µM).

As to “CAAAGGCATTTCAGTTCC (sugars l1 d14 l3, PS)”, the target mRNA inhibition turned out to be 56.8% in the data set with ANGPTL2 (5 µM) and 70.4% with ANGPTL2 (25 µM).

Take TCTTTTAATGTCACAA (sugars k3 d10 k3, PS): in the data set with KRAS, the target mRNA inhibition worked out at 46%.

Consider ATCCATTTATGTGACT (sugars k3 d10 k3, PS), for which, in the data set with KRAS, the target mRNA inhibition stood at 38%.

Consider CTATTAGGAGTCTTTA (sugars k3 d10 k3, PS), for which the target mRNA inhibition with KRAS came to 34%.

Regarding “GATTTGTCAGCAGGAC (sugars kkddddddddkekekk, PS)”, the target mRNA inhibition with KRAS turned out to be 0%.

For the sequence “AGATTGTGCTGAGCTT (sugars k3 d9 k3 e1, PS)”, the target mRNA inhibition in the data set with KRAS came out at 42%.

In the case of AATAGTTTCCATTGCC (sugars k3 d10 k3, PS), in the data set with KRAS, the target mRNA inhibition amounted to 56%.
